“And” between values parts separate entries of the source, which are not always exact repeats. Equal values may be shown once.
Experiment: molar heat capacity at constant volume
Conditions: Liquid, Vacuum adiabatic calorimetry

FC(F)C(F)(F)OCC(F)(F)F [2,2,2-trifluoroethyl 1,1,2,2-tetrafluoroethyl ether]
Conditions	molar heat capacity at constant volume
279.15 K, 5663 kPa	189.85 J/K/mol
280.15 K, 6663 kPa	187.85 J/K/mol
280.15 K, 6673 kPa	191.45 J/K/mol
281.15 K, 7673 kPa	194.25 J/K/mol
281.15 K, 7685 kPa	189.25 J/K/mol
282.15 K, 8685 kPa	190.65 J/K/mol
282.15 K, 8696 kPa	193.65 J/K/mol
283.15 K, 9695 kPa	191.85 J/K/mol
283.15 K, 9705 kPa	192.45 J/K/mol
284.15 K, 10704 kPa	193.45 J/K/mol
284.15 K, 10712 kPa	191.85 J/K/mol
285.15 K, 11710 kPa	191.65 J/K/mol
285.15 K, 11717 kPa	193.65 J/K/mol
286.15 K, 12714 kPa	193.85 J/K/mol
286.15 K, 12720 kPa	191.65 J/K/mol
287.15 K, 13718 kPa	193.05 J/K/mol
287.15 K, 13722 kPa	194.65 J/K/mol
288.15 K, 14719 kPa	192.25 J/K/mol
288.15 K, 14722 kPa	193.05 J/K/mol
289.15 K, 15719 kPa	193.65 J/K/mol
289.15 K, 15720 kPa	193.25 J/K/mol
290.15 K, 16716 kPa	193.45 J/K/mol
290.15 K, 16717 kPa	195.85 J/K/mol
291.15 K, 17711 kPa	193.65 J/K/mol
291.15 K, 17712 kPa	194.45 J/K/mol
292.15 K, 18703 kPa	193.05 J/K/mol
292.15 K, 18704 kPa	193.05 J/K/mol
293.15 K, 19694 kPa	193.45 J/K/mol and 195.45 J/K/mol
294.15 K, 20683 kPa	194.85 J/K/mol and 193.25 J/K/mol
295.15 K, 21669 kPa	192.45 J/K/mol and 193.65 J/K/mol
296.15 K, 22653 kPa	195.05 J/K/mol
296.15 K, 22654 kPa	195.85 J/K/mol
297.15 K, 23636 kPa	193.85 J/K/mol and 194.45 J/K/mol
298.15 K, 24616 kPa	193.85 J/K/mol
298.15 K, 24617 kPa	193.85 J/K/mol
299.15 K, 25595 kPa	195.45 J/K/mol
299.15 K, 25596 kPa	196.45 J/K/mol
300.15 K, 26572 kPa	194.05 J/K/mol
300.15 K, 26573 kPa	193.85 J/K/mol
301.15 K, 6294 kPa	197.05 J/K/mol
301.15 K, 27548 kPa	196.25 J/K/mol and 195.85 J/K/mol
302.15 K, 7147 kPa	196.45 J/K/mol
302.15 K, 28521 kPa	195.05 J/K/mol
302.15 K, 28522 kPa	193.65 J/K/mol
303.15 K, 8010 kPa	194.05 J/K/mol
303.15 K, 8015 kPa	197.65 J/K/mol
303.15 K, 29493 kPa	196.65 J/K/mol and 196.85 J/K/mol
304.15 K, 8873 kPa	195.25 J/K/mol
304.15 K, 8874 kPa	194.45 J/K/mol
305.15 K, 9734 kPa	197.65 J/K/mol and 197.85 J/K/mol
306.15 K, 10592 kPa	195.45 J/K/mol
306.15 K, 10594 kPa	196.05 J/K/mol
307.15 K, 11449 kPa	197.25 J/K/mol
307.15 K, 11452 kPa	197.05 J/K/mol
308.15 K, 12303 kPa	195.25 J/K/mol
308.15 K, 12308 kPa	196.25 J/K/mol
309.15 K, 13157 kPa	197.45 J/K/mol
309.15 K, 13163 kPa	197.45 J/K/mol
310.15 K, 14009 kPa	195.65 J/K/mol
310.15 K, 14016 kPa	196.45 J/K/mol
311.15 K, 14859 kPa	196.45 J/K/mol
311.15 K, 14867 kPa	197.05 J/K/mol
312.15 K, 15708 kPa	198.05 J/K/mol
312.15 K, 15718 kPa	197.25 J/K/mol
313.15 K, 16557 kPa	196.85 J/K/mol
313.15 K, 16566 kPa	197.05 J/K/mol
314.15 K, 17405 kPa	198.05 J/K/mol
314.15 K, 17414 kPa	196.85 J/K/mol
315.15 K, 18252 kPa	199.05 J/K/mol
315.15 K, 18260 kPa	196.45 J/K/mol
316.15 K, 19097 kPa	197.45 J/K/mol
316.15 K, 19105 kPa	197.85 J/K/mol
317.15 K, 19942 kPa	200.86 J/K/mol
317.15 K, 19949 kPa	198.45 J/K/mol
318.15 K, 20785 kPa	198.25 J/K/mol
318.15 K, 20791 kPa	198.65 J/K/mol
319.15 K, 21626 kPa	197.85 J/K/mol
319.15 K, 21632 kPa	197.65 J/K/mol
320.15 K, 22467 kPa	200.45 J/K/mol
320.15 K, 22471 kPa	199.25 J/K/mol
321.15 K, 23306 kPa	199.25 J/K/mol
321.15 K, 23311 kPa	198.45 J/K/mol
322.15 K, 24144 kPa	199.05 J/K/mol
322.15 K, 24148 kPa	198.05 J/K/mol
323.15 K, 24980 kPa	199.65 J/K/mol
323.15 K, 24983 kPa	199.05 J/K/mol
324.15 K, 25816 kPa	200.66 J/K/mol
324.15 K, 25819 kPa	201.06 J/K/mol
325.15 K, 26650 kPa	199.05 J/K/mol
325.15 K, 26653 kPa	197.05 J/K/mol
326.15 K, 27482 kPa	200.86 J/K/mol
326.15 K, 27484 kPa	199.85 J/K/mol
327.15 K, 28313 kPa	199.65 J/K/mol
327.15 K, 28315 kPa	198.65 J/K/mol
328.15 K, 29144 kPa	200.66 J/K/mol
328.15 K, 29145 kPa	201.86 J/K/mol
329.15 K, 7678 kPa	198.25 J/K/mol
329.15 K, 7689 kPa	201.66 J/K/mol
329.15 K, 29973 kPa	201.66 J/K/mol
329.15 K, 29975 kPa	200.25 J/K/mol
330.15 K, 8385 kPa	206.66 J/K/mol
330.15 K, 8394 kPa	203.66 J/K/mol
331.15 K, 9091 kPa	203.86 J/K/mol
331.15 K, 9099 kPa	203.26 J/K/mol
332.15 K, 9796 kPa	205.26 J/K/mol
332.15 K, 9803 kPa	203.46 J/K/mol
333.15 K, 10500 kPa	204.86 J/K/mol
333.15 K, 10506 kPa	204.26 J/K/mol
334.15 K, 11204 kPa	205.86 J/K/mol
334.15 K, 11209 kPa	204.66 J/K/mol
335.15 K, 11908 kPa	206.26 J/K/mol
335.15 K, 11912 kPa	205.06 J/K/mol
336.15 K, 12610 kPa	205.26 J/K/mol
336.15 K, 12614 kPa	204.26 J/K/mol
337.15 K, 13313 kPa	208.46 J/K/mol
337.15 K, 13315 kPa	206.66 J/K/mol
338.15 K, 14014 kPa	204.26 J/K/mol
338.15 K, 14016 kPa	204.66 J/K/mol
339.15 K, 14714 kPa	208.46 J/K/mol
339.15 K, 14716 kPa	206.06 J/K/mol
340.15 K, 15413 kPa	207.06 J/K/mol
340.15 K, 15416 kPa	206.86 J/K/mol
341.15 K, 16111 kPa	207.06 J/K/mol
341.15 K, 16114 kPa	208.06 J/K/mol
